Values quoted from earlier work as cited in patent publication US9175008B1, “Prodrugs of anti-platelet agents” (CELLIX BIO PRIVATE LIMITED, priority 2014, dated 2015).

Test system: recurrent atherothrombotic events
Conditions: recurrent atherothrombotic events across a wide range of high-risk patients

SMILES: CC(=O)Oc1ccccc1C(=O)O [aspirin]
- relative risk reduction: approximately 25%
